From patent US20260256925A1, “INDAZOLE DERIVATIVES AS ESTROGEN RECEPTOR DEGRADERS” (REGENTS OF THE UNIVERSITY OF MICHIGAN, priority 2022, published 2026)

How the values were obtained:
[1] = biological target: T1, ER (Homo sapiens, UniProt P03372); experiment: In-cell western blot analysis, relative ER percentage (compounds B1-B126); format: cell-based; conditions: ER degradation, 16 hours, read-out: ICW DC50
T1 construct: endogenous in cells; probably T47D or MCF-7
T1 sequence (P03372 1-595): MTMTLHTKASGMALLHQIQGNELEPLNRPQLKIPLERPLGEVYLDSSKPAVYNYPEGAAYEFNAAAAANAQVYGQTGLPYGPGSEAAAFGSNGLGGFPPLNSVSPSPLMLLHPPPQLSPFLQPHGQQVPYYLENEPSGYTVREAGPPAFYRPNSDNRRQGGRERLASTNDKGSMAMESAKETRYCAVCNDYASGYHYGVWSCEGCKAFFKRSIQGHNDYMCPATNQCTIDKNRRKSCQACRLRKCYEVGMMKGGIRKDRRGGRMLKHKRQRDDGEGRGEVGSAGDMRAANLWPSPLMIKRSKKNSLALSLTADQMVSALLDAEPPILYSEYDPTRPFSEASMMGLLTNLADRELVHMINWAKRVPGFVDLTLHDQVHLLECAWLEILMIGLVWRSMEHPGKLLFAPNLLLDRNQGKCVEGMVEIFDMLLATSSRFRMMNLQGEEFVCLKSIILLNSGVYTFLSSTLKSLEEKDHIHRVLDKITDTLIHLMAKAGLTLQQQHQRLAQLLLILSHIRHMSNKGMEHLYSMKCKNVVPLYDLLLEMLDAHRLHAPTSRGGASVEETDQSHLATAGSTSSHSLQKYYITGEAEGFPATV
Description: In-cell western blot analysis. Cells are seeded in multi-well plates (e.g., at 40,000 or 10,000 cells/well). Diluted compounds at certain concentration are added (final 0.5% DMSO) and cells are incubated for a certain period of time (e.g., 16 hours). Formaldehyde (e.g., PBS: FA=9:1) is added and followed by washing with PBS. The cells are blocked with Licor blocking buffer (Li-Cor). The relative ER percentage in treated cells are obtained by comparing the values of treated wells to those in untreated and DMSO-treated wells as 100%.
In-cell western blot analysis. a. seed cells in black-sided/clear bottom 96- or 384-well plates at 40,000 or 10,000 cells/well, overnight; b. add diluted compounds (final 0.5% DMSO), 16 hours. […] RT 2h, gentle shaking. Negative control: cells plus secondary antibodies (no primary antibodies); e. wash×4 with PBS +0.05-0.1% Tween 20, gentel shaking; f. anti-rabbit-680 and anti-mouse-800 (both 1:1000 in LiCor block+0.05% Tween20, RT 1h, gentle shaking, no light. LI-COR: 0.2% to reduce background; g. wash×4 with PBS+0.05% Tween 20, gental shaking; h. add 100 μL or 25 μL of PBS to each well and read on CLX plate reader. The relative ER percentage in treated cells were obtained by comparing the values of treated wells to those in untreated and DMSO-treated wells as 100%.

[2] = Cell growth assay, WST-8 (compounds B1-B126); format: cell-based; conditions: 96 h; T47D cell line, WST-8, 4 days; read-out: Cell growth inhibition in T47D cell line IC50
Description: Cell Growth Assay. The cells are seeded at certain concentration (e.g., at 1500/well) in multi-well plates overnight. Cells are subsequently treated with the compounds. A certain period of time (e.g., 4 days) after the compound treatment, 10% WST-8 reagent is added to the culture medium and incubate under certain condiction (e.g., in a CO2 incubator at 37° C. for 2.5 hours). The absorbance is measured on each sample using a microplate reader at certain wavelength (e.g., 450 nm). The relative absorbance is calculated against the vehicle control from three individually repeats.
Cell Growth Assay. The cells were seeded at 1500/well in 96 well plates overnight. One day after the seeding, they were treated with indicated doses of compounds respectively. 4 days after the compound treatment, 10% WST-8 reagent was added to the culture medium and incubate in a CO2 incubator at 37° C. for 2.5 hours. Before reading, the plate was mixed gently on an orbital shaker for one minute to ensure homogeneous distribution of color. The absorbance was measured of each sample using a microplate reader at a wavelength of 450 nm. The relative absorbance was calculated against the vehicle control from three individually repeats.

Row | SMILES | DC50 [1] | IC50 [2]
1 | COc1cc(N2CCC3(CC2)OCC(CN2CCN4c5cc6c(cc5OC[C@H]4C2)C(=O)N(C2CCC(=O)NC2=O)C6)CO3)ccc1[C@@H]1c2ccc3[nH]ncc3c2C[C@@H](C)N1CC(F)F (stereo partly drawn) [Compound B115, 3-((R)-3-((9-(4-((6S,8R)-7-(2,2-difluoroethyl)-8-methyl-6,7,8,9-tetrahydro-3H-pyrazolo[4,3-f]isoquinolin-6-yl)-3-mcthoxyphenyl)-1,5-dioxa-9-azaspiro[5.5]undecan-3-yl)methyl)-8-oxo-1,2,3,4,4a,5,8,10-octahydro-9H-pyrazino[1′,2′:4,5][1,4]oxazino[2,3-f]isoindol-9-yl)piperidine-2,6-dione] | < 10 nM | < 1 nM
2 | C[C@@H]1Cc2c(ccc3[nH]ncc23)[C@@H](c2c(F)cc(N3CCN(C(=O)CN4CCN5c6cc7c(cc6OC[C@@H]5C4)C(=O)N(C4CCC(=O)NC4=O)C7)CC3)cc2F)N1CC(F)F (stereo partly drawn) [Compound B31] | 10 to 100 nM | < 1 nM
3 | C[C@@H]1Cc2c(ccc3[nH]ncc23)[C@@H](c2ccc(N3CCC4(CC3)CC(CN3CCN5c6cc7c(cc6OC[C@@H]5C3)C(=O)N(C3CCC(=O)NC3=O)C7)C4)cn2)N1CC(F)(F)F (stereo partly drawn) [Compound B77, 3-((S)-3-((7-(6-((6S,8R)-8-methyl-7-(2,2,2-trifluoroethyl)-6,7,8,9-tetrahydro-3H-pyrazolo[4,3-f]isoquinolin-6-yl)pyridin-3-yl)-7-azaspiro[3.5]nonan-2-yl)methyl)-8-oxo-1,2,3,4,4a,5,8,10-octahydro-9H-pyrazino[1′,2′:4,5][1,4]oxazino[2,3-f]isoindol-9-yl)piperidine-2,6-dione] | 10 to 100 nM | 1 to 10 nM
4 | COc1cc(N2CCC3(CC2)CC(CN2CCN4c5ccc6c(c5OC[C@H]4C2)CN(C2CCC(=O)NC2=O)C6=O)CO3)ccc1[C@@H]1c2ccc3[nH]ncc3c2C[C@@H](C)N1CC(F)F (stereo partly drawn) [Compound B80, 3-((5aR)-7-((8-(4-((6S,8R)-7-(2,2-difluoroethyl)-8-methyl-6,7,8,9-tetrahydro-3H-pyrazolo[4,3-f]isoquinolin-6-yl)-3-mcthoxyphenyl)-1-oxa-8-azaspiro[4.5]decan-3-yl)methyl)-1-oxo-1,3,5,5a,6,7,8,9-octahydro-2H-pyrazino[1′,2′:4,5][1,4]oxazino[2,3-e]isoindol-2-yl)piperidine-2,6-dione] | < 10 nM | < 1 nM
5 | C[C@@H]1Cc2c(ccc3[nH]ncc23)[C@@H](c2c(F)cc(N3CCC4(CC3)CN(CC(=O)N3CCN5c6cc7c(cc6OC[C@@H]5C3)C(=O)N(C3CCC(=O)NC3=O)C7)C4)cc2F)N1CC(F)F (stereo partly drawn) [Compound B21, 3-((S)-3-(2-(7-(4-((6S,8R)-7-(2,2-difluoroethyl)-8-methyl-6,7,8,9-tetrahydro-3H-pyrazolo[4,3-f]isoquinolin-6-yl)-3,5-difluorophenyl)-2,7-diazaspiro[3.5]nonan-2-yl)acetyl)-8-oxo-1,2,3,4,4a,5,8,10-octahydro-9H-pyrazino[1′,2′: 4,5][1,4]oxazino[2,3-f]isoindol-9-yl)piperidine-2,6-dione] | < 10 nM | < 1 nM
6 | C[C@@H]1Cc2c(ccc3[nH]ncc23)[C@@H](c2cnc(N3CCC4(CCC(CN5CCN6c7ccc8c(c7OC[C@H]6C5)CN([C@H]5CCC(=O)NC5=O)C8=O)CO4)CC3)nc2)N1CC(F)(F)F (stereo partly drawn) [Compound B125, (3S)-3-((5aR)-7-((9-(5-((6S,8R)-8-methyl-7-(2,2,2-trifluoroethyl)-6,7,8,9-tetrahydro-3H-pyrazolo[4,3-f]isoquinolin-6-yl)pyrimidin-2-yl)-1-oxa-9-azaspiro[5.5]undecan-3-yl)methyl)-1-oxo-1,3,5,5a,6,7,8,9-octahydro-2H-pyrazino[1′,2′:4,5][1,4]oxazino[2,3-e]isoindol-2-yl)piperidine-2,6-dione] | < 10 nM | < 1 nM
7 | C[C@@H]1Cc2c(ccc3[nH]ncc23)[C@@H](c2c(F)cc(N3CCC(CN4CCC5(CCOc6c5ccc5c6CN(C6CCC(=O)NC6=O)C5=O)CC4)CC3)cc2F)N1CC(F)F (stereo partly drawn) [Compound B47, 3-(1-((1-(4-((6S,8R)-7-(2,2-difluoroethyl)-8-methyl-6,7,8,9-tetrahydro-3H-pyrazolo[4,3-f]isoquinolin-6-yl)-3,5-difluorophenyl)piperidin-4-yl)methyl)-7′-oxo-2′,3′,7′,9′-tetrahydro-8′H-spiro[piperidine-4,4′-pyrano[2,3-e]isoindol]-8′-yl)piperidine-2,6-dione] |  | < 1 nM

More lines, main results first:

Row | DC50 [1] | SMILES | IC50 [2]
8 | > 100 nM | COc1cc(N2CC3(CCC(CN4CCN5c6ccc7c(c6OC[C@H]5C4)CN(C4CCC(=O)NC4=O)C7=O)CC3)C2)ccc1[C@@H]1c2ccc3[nH]ncc3c2C[C@@H](C)N1CC(F)F (stereo partly drawn) [Compound B84, 3-((R)-7-((2-(4-((6S,8R)-7-(2,2-difluoroethyl)-8-methyl-6,7,8,9-tetrahydro-3H-pyrazolo[4,3-f]isoquinolin-6-yl)-3-methoxyphenyl)-2-azaspiro[3.5]nonan-7-yl)methyl)-1-oxo-1,3,5,5a,6,7,8,9-octahydro-2H-pyrazino[1′,2′:4,5][1,4]oxazino[2,3-e]isoindol-2-yl)piperidine-2,6-dione] | > 10 nM
9 | < 10 nM | C[C@@H]1Cc2c(ccc3[nH]ncc23)[C@@H](c2ccc(N3CC4(CCC(CN5CCN6c7ccc8c(c7OC[C@H]6C5)CN(C5CCC(=O)NC5=O)C8=O)CC4)C3)cn2)N1CC(F)F (stereo partly drawn) [Compound B86, 3-((R)-7-((2-(6-((6S,8R)-7-(2,2-difluoroethyl)-8-methyl-6,7,8,9-tetrahydro-3H-pyrazolo[4,3-f]isoquinolin-6-yl)pyridin-3-yl)-2-azaspiro[3.5]nonan-7-yl)mcthyl)-1-oxo-1,3,5,5a,6,7,8,9-octahydro-2H-pyrazino[1′,2′:4,5][1,4]oxazino[2,3-e]isoindol-2-yl)piperidine-2,6-dione] | 1 to 10 nM
10 | 10 to 100 nM | COc1cc(N2CC3(CCC(CN4CCN5c6ccc7c(c6OC[C@@H]5C4)CN(C4CCC(=O)NC4=O)C7=O)CC3)C2)ccc1[C@@H]1c2ccc3[nH]ncc3c2C[C@@H](C)N1CC(F)F (stereo partly drawn) [Compound B85, 3-((S)-7-((2-(4-((6S,8R)-7-(2,2-difluoroethyl)-8-methyl-6,7,8,9-tetrahydro-3H-pyrazolo[4,3-f]isoquinolin-6-yl)-3-methoxyphenyl)-2-azaspiro[3.5]nonan-7-yl)methyl)-1-oxo-1,3,5,5a,6,7,8,9-octahydro-2H-pyrazino[1′,2′:4,5][1,4]oxazino[2,3-e]isoindol-2-yl)piperidine-2,6-dione] | > 10 nM
11 | 10 to 100 nM | C[C@@H]1Cc2c(ccc3[nH]ncc23)[C@@H](c2ccc(N3CCC4(CC3)CC(CN3CCN5c6ccc7c(c6OC[C@@H]5C3)CN(C3CCC(=O)NC3=O)C7=O)C4)cn2)N1CC(F)(F)F (stereo partly drawn) [Compound B107, 3-((S)-7-((7-(6-((6S,8R)-8-methyl-7-(2,2,2-trifluoroethyl)-6,7,8,9-tetrahydro-3H-pyrazolo[4,3-f]isoquinolin-6-yl)pyridin-3-yl)-7-azaspiro[3.5]nonan-2-yl)methyl)-1-oxo-1,3,5,5a,6,7,8,9-octahydro-2H-pyrazino[1′,2′:4,5][1,4]oxazino[2,3-e]isoindol-2-yl)piperidine-2,6-dione] | < 1 nM
